Like-named read-outs stand apart in the source and are kept apart here.
Columns and labels:
endometrial cells = test: Sequential estrogen-progestative therapy: histological appearance of endometrium biopsy; type: in vivo, women; conditions: for Number of mitoses (% of section in which mitoses were present), Glands: with 30 μg ethinyl estradiol, biopsy Day 17-20 of second cycle
Procedure: (§1) Menopausal women, whether naturally or as the result of surgery, were subjected to a sequential estrogen-progestative therapy. From Day 1 to Day 12 they received 30 μg of ethinyl estradiol and then, from Day 13 to Day 22, the same dose of ethinyl estradiol associated with different doses of nomegestrol acetate or chlormadinone acetate. The doses were as follows:
(§2) The number of women was between 2 and 11, depending on the group. There was then a therapeutic pause of 7 days followed by a second treatment cycle.
(§3) The parameters taken into account were as follows: • the interval before periods commenced after the therapy had been interrupted, following the first and second treatment cycles; • the histological appearance of the endometrium recovered in a biopsy carried out between Day 17 and Day 20 of the second cycle.

endometrium [1] = conditions: cited from earlier work
menopausal women [2] = test: Continuous combined estradiol + nomegestrol acetate, 6 months: genital bleeding; type: in vivo
Procedure: (§4) A trial was carried out to study the effects on the endometrium of the continuous combined association of an oral estradiol dose equivalent to 1.5 mg and various doses of nomegestrol acetate.
(§5) This consisted in the treatment for 6 consecutive months of 179 women who had been menopausal for at least 3 years, with 1.5 mg per day of estradiol combined continuously with 4 different doses of nomegestrol acetate: 5 mg/day (n=47); 2.5 mg/day (n=42); 1.25 mg/day (n=43) and 0.625 mg/day (n=47).
(§6) The impact of these four associations on the endometrium was evaluated by recording the characteristics of genital bleeding, measuring the thickness of the endometrium by endovaginal echography before and at the end of the therapy, and by carrying out a biopsy of the endometrium before and at the end of the therapy.

endometrium [3] = test: Continuous combined estradiol + nomegestrol acetate, 6 months: endometrial thickness by endovaginal echography; type: in vivo, women; conditions: 6 months continuous
Procedure: as §4, §5, §6

menopausal women [4] = test: Sequential estrogen-progestative therapy: interval before periods after therapy is interrupted; type: in vivo; conditions: Day 13-22, with 30 μg ethinyl estradiol
Procedure: as §1, §2, §3

endometrium [5] = test: Continuous combined estradiol + nomegestrol acetate, 6 months: biopsy of the endometrium; type: in vivo, women
Procedure: as §4, §5, §6

[6] = doses higher than those of the application, prolonged treatments; cited from earlier work
endometrium [7] = conditions: NEUMANN publication; cited from earlier work
ovulation [8] = test: Dose inhibiting ovulation (literature); type: in vivo; conditions: NEUMANN; reference progestative norgestrel (=1)
Text: (§7) 2) Apart from the above, it would be reasonable to think that the doses claimed should be based on data from clinical pharmacology and/or clinical data previously published and commonly accepted. Now, if the doses defined as in the PLUNKETT patents are considered, it is easy to see that in most cases the active doses published already a long time ago, i.e. before the said patents were filed (NEUMANN, 1977) or more recently (KUHL, 1996), are very coherent but only rarely lie within the dose ranges claimed in the patents in the name of PLUNKETT (Table 2).

ovulation [9] = conditions: NEUMANN publication; cited from earlier work
endometrium [10] = test: Dose inducing transformation of the endometrium (literature); type: in vivo; conditions: NEUMANN; reference progestative norgestrel (=1)
Text: as §7

[11] = NEUMANN publication; cited from earlier work
[12] = Dose producing an adequate delay in the onset of periods (literature); type: in vivo; conditions: NEUMANN; reference progestative norgestrel (=1)
Text: as §7

[13] = NEUMANN publication; cited from earlier work; remark: listed apart in the source
[14] = Dose having a contraceptive effect (literature); type: in vivo; conditions: NEUMANN; reference progestative norgestrel (=1)
Text: as §7

[15] = NOMAC 0.625 mg/day + estradiol (2 mg estradiol valerate)
[16] = NOMAC 1.25 mg/day + estradiol (2 mg estradiol valerate)
[17] = NOMAC 2.5 mg/day + estradiol (2 mg estradiol valerate)
[18] = NOMAC 5 mg/day + estradiol (2 mg estradiol valerate)
[19] = NOMAC 0.625 mg/day (n = 32) + estradiol (2 mg estradiol valerate)
[20] = NOMAC 1.25 mg/day (n = 33) + estradiol (2 mg estradiol valerate)
[21] = NOMAC 2.5 mg/day (n = 34) + estradiol (2 mg estradiol valerate)
[22] = NOMAC 5 mg/day (n = 40) + estradiol (2 mg estradiol valerate)

CC(=O)O[C@]1(C(C)=O)CC[C@H]2[C@@H]3C=C(C)C4=CC(=O)CC[C@@H]4[C@H]3CC[C@@]21C [Nomegestrol acetate, nomegestrol acetate]
Number of mitoses (% of section in which mitoses were present), Glands (endometrial cells; 0.1 mg/day): 50% | Number of mitoses (% of section in which mitoses were present), Glands (endometrial cells; 0.25 mg/day): 50% | Number of mitoses (% of section in which mitoses were present), Glands (endometrial cells; 0.5 mg/day): 0% | Number of mitoses (% of section in which mitoses were present), Glands (endometrial cells; 1 mg/day): 0% | Number of mitoses (% of section in which mitoses were present), Glands (endometrial cells; 2 mg/day): 0% | Number of mitoses (% of section in which mitoses were present), Glands (endometrial cells; 2.5 mg/day): 0% | Number of mitoses (% of section in which mitoses were present), Glands (endometrial cells; 5 mg/day): 0% | Number of mitoses (% of section in which mitoses were present), Glands (endometrial cells; 10 mg/day): 30% | Dose at which mitosis no longer takes place in glandular cells (endometrial cells; sequential therapy with 30 μg ethinyl estradiol): ≥ 0.5 mg/day | Endometrial hyperplasia (endometrium [1]; 5 mg/day for 12 days per cycle, with various estrogens, 150 women over 1 year (THOMAS et al. 1993)): makes it possible to prevent endometrial hyperplasia | Endometrial hyperplasia (endometrium [1]; 5 mg/day for 14 days per cycle, women treated with percutaneous estradiol (BERNARD et al. 1994)): absence of hyperplasia was confirmed | Percentage of women who showed no genital bleeding at all throughout the therapy (menopausal women [2]; 0.625 mg/day + 1.5 mg/day estradiol): 42.5% | Percentage of women who showed no genital bleeding at all throughout the therapy (menopausal women [2]; 1.25 mg/day + 1.5 mg/day estradiol): 58.1% | Percentage of women who showed no genital bleeding at all throughout the therapy (menopausal women [2]; 2.5 mg/day + 1.5 mg/day estradiol): 52.4% | Percentage of women who showed no genital bleeding at all throughout the therapy (menopausal women [2]; 5 mg/day + 1.5 mg/day estradiol): 68.1% | Mean thickness at the end of the treatment (endometrium [3]; [15]): 3.18 mm | Mean thickness increase under the treatment (endometrium [3]; [15]): 0.39 mm | Mean thickness at the end of the treatment (endometrium [3]; [16]): 4.05 mm | Mean thickness increase under the treatment (endometrium [3]; [16]): 1.12 mm | Mean thickness at the end of the treatment (endometrium [3]; [17]): 3.93 mm | Mean thickness increase under the treatment (endometrium [3]; [17]): 1.36 mm | Mean thickness at the end of the treatment (endometrium [3]; [18]): 3.83 mm | Mean thickness increase under the treatment (endometrium [3]; NOMAC 5 mg/day + estradiol (2 mg estradiol valerate), listed as NOMAC): 1.57 mm | Mean thickness increase under the treatment (endometrium [3]; NOMAC 5 mg/day + estradiol (2 mg estradiol valerate), listed as nomegestrol acetate): 1.56 mm | Interval before the appearance of periods after the therapy is discontinued (menopausal women [4]; 0.1 mg/day): -0.5 ± 1.5 days | Interval before the appearance of periods after the therapy is discontinued (menopausal women [4]; 0.25 mg/day): -0.5 ± 0.5 days | Interval before the appearance of periods after the therapy is discontinued (menopausal women [4]; 0.5 mg/day): 1.5 ± 0.5 days | Interval before the appearance of periods after the therapy is discontinued (menopausal women [4]; 1.0 mg/day): 2.7 ± 0.2 days | Interval before the appearance of periods after the therapy is discontinued (menopausal women [4]; 2.5 mg/day): 3.2 ± 0.2 days | Interval before the appearance of periods after the therapy is discontinued (menopausal women [4]; 5 mg/day): 4.3 ± 0.4 days | Interval before the appearance of periods after the therapy is discontinued (menopausal women [4]; 10 mg/day): 3.8 ± 0.8 days | Absence of endometrium, number of women (endometrium [5]; [19]): 5 | Atrophic endometrium, number of women (endometrium [5]; [19]): 19 | Polyps, number of women (endometrium [5]; [19]): 0 | Secretory endometrium, number of women (endometrium [5]; [19]): 8 | Absence of endometrium, percentage (endometrium [5]; [15]): (15.6) percentage | Atrophic endometrium, percentage (endometrium [5]; [15]): (59.4) percentage | Secretory endometrium, percentage (endometrium [5]; [15]): (25.0) percentage | Absence of endometrium, number of women (endometrium [5]; [20]): 10 | Atrophic endometrium, number of women (endometrium [5]; [20]): 10 | Polyps, number of women (endometrium [5]; [20]): 1 | Secretory endometrium, number of women (endometrium [5]; [20]): 12 | Absence of endometrium, percentage (endometrium [5]; [16]): (30.3) percentage | Atrophic endometrium, percentage (endometrium [5]; [16]): (30.3) percentage | Polyps, percentage (endometrium [5]; [16]): (3.0) percentage | Secretory endometrium, percentage (endometrium [5]; [16]): (36.4) percentage | Absence of endometrium, number of women (endometrium [5]; [21]): 3 | Atrophic endometrium, number of women (endometrium [5]; [21]): 8 | Polyps, number of women (endometrium [5]; [21]): 1 | Secretory endometrium, number of women (endometrium [5]; [21]): 22 | Absence of endometrium, percentage (endometrium [5]; [17]): (8.8) percentage | Atrophic endometrium, percentage (endometrium [5]; [17]): (23.5) percentage | Polyps, percentage (endometrium [5]; [17]): (2.9) percentage | Secretory endometrium, percentage (endometrium [5]; [17]): (64.7) percentage | Absence of endometrium, number of women (endometrium [5]; [22]): 3 | Atrophic endometrium, number of women (endometrium [5]; [22]): 3 | Polyps, number of women (endometrium [5]; [22]): 0 | Secretory endometrium, number of women (endometrium [5]; [22]): 34 | Absence of endometrium, percentage (endometrium [5]; [18]): (7.5) percentage | Atrophic endometrium, percentage (endometrium [5]; [18]): (7.5) percentage | Secretory endometrium, percentage (endometrium [5]; [18]): (85.0) percentage | Tolerance: effect on lipids profile, tolerance to glucides, arterial pressure, coagulation factors [6]: no effect on the lipids profile, the tolerance to glucides, the arterial pressure and the coagulation factors

C#CC1(O)CC[C@H]2[C@@H]3CCC4=CC(=O)CC[C@@H]4[C@H]3CC[C@@]21CC (stereo partly shown) [Norgestrel]
Dose necessary to induce transformation of the endometrium (1) (endometrium [7]): 1200 µg/day | Dose ratio, Ovulation (3) (ovulation [8]): 1.0 | Dose necessary to inhibit ovulation (3) (ovulation [9]): 100 µg/day | Dose ratio, Endometrium (1) (endometrium [10]): 1.0 | Dose necessary to have a contraceptive effect (4) [11]: 250 µg/day | Dose ratio, Menstruation (2) [12]: 1.0 | Dose necessary to produce an adequate delay in the onset of periods (2), Menstruation [13]: 2000 µg/day | Dose ratio, Contraception (4) [14]: 1.0

Source: US8168619B1, “Hormonal composition based on a progestational agent and an oestrogen and use thereof” (Laboratoire Theramex, priority 1999, dated 2012)
